Measurements taken from the CheMixHub viscosity set.
± gives the uncertainty stated by the source.

Test: xn = mol fraction of the nth substance listed

CC1COC(=O)O1 (configuration not stated) + Cc1ccccc1
viscosity [mPa·s], 101.3 kPa
Conditions	293.15 K	298.15 K	303.15 K	308.15 K
x1 = 0.0911	0.6805 ± 0.036	0.6333 ± 0.034	0.5934 ± 0.032	0.5572 ± 0.03
x1 = 0.1223	–	–	0.6125 ± 0.011	–
x1 = 0.1841	0.7726 ± 0.04	0.719 ± 0.037	0.6689 ± 0.035	0.6294 ± 0.034
x1 = 0.2385	–	–	0.7127 ± 0.013	–
x1 = 0.2789	0.8738 ± 0.044	0.8139 ± 0.041	0.7586 ± 0.039	0.7171 ± 0.037
x1 = 0.3493	–	–	0.824 ± 0.014	–
x1 = 0.3757	1.006 ± 0.05	0.9358 ± 0.047	0.8694 ± 0.044	0.8243 ± 0.042
x1 = 0.4553	–	–	0.9463 ± 0.016	–
x1 = 0.4744	1.149 ± 0.056	1.074 ± 0.053	0.9983 ± 0.049	0.9407 ± 0.047
x1 = 0.5561	–	–	1.085 ± 0.018	–
x1 = 0.5752	1.292 ± 0.062	1.195 ± 0.058	1.103 ± 0.054	1.03 ± 0.051
x1 = 0.6524	–	–	1.244 ± 0.021	–
x1 = 0.678	1.529 ± 0.072	1.404 ± 0.067	1.304 ± 0.063	1.203 ± 0.058
x1 = 0.7452	–	–	1.431 ± 0.024	–
x1 = 0.7831	1.856 ± 0.086	1.69 ± 0.079	1.549 ± 0.073	1.42 ± 0.068
x1 = 0.8335	–	–	1.646 ± 0.027	–
x1 = 0.8904	2.256 ± 0.1	2.048 ± 0.095	1.869 ± 0.087	1.71 ± 0.08
x1 = 0.9188	–	–	1.888 ± 0.031	–

c1ccc2ccccc2c1 + Cc1ccccc1
Conditions	viscosity [mPa·s]
293.15 K, 101.3 kPa, x1 = 0.00773	0.6067 ± 0.016
293.15 K, 101.3 kPa, x1 = 0.01364	0.606 ± 0.016
293.15 K, 101.3 kPa, x1 = 0.02032	0.6117 ± 0.016
293.15 K, 101.3 kPa, x1 = 0.02587	0.616 ± 0.016
293.15 K, 101.3 kPa, x1 = 0.03281	0.6241 ± 0.016
293.15 K, 101.3 kPa, x1 = 0.03882	0.6277 ± 0.016
293.15 K, 101.3 kPa, x1 = 0.04399	0.6308 ± 0.016
298.15 K, 101 kPa, x1 = 0.0419	0.5848 ± 0.015
298.15 K, 101 kPa, x1 = 0.1026	0.6394 ± 0.017
298.15 K, 101 kPa, x1 = 0.1533	0.6866 ± 0.018
298.15 K, 101 kPa, x1 = 0.2127	0.747 ± 0.02
298.15 K, 101.3 kPa, x1 = 0.00773	0.5676 ± 0.015
298.15 K, 101.3 kPa, x1 = 0.01364	0.5709 ± 0.015
298.15 K, 101.3 kPa, x1 = 0.02032	0.5768 ± 0.015
298.15 K, 101.3 kPa, x1 = 0.02587	0.581 ± 0.015
298.15 K, 101.3 kPa, x1 = 0.03281	0.5863 ± 0.015
298.15 K, 101.3 kPa, x1 = 0.03882	0.591 ± 0.015
298.15 K, 101.3 kPa, x1 = 0.04399	0.5948 ± 0.015
303.15 K, 101 kPa, x1 = 0.3218	0.7855 ± 0.02
308.15 K, 101 kPa, x1 = 0.3218	0.747 ± 0.019
308.15 K, 101 kPa, x1 = 0.3709	0.8101 ± 0.02
313.15 K, 101 kPa, x1 = 0.3218	0.7058 ± 0.018
313.15 K, 101 kPa, x1 = 0.3709	0.7571 ± 0.019
313.15 K, 101.3 kPa, x1 = 0.00773	0.4785 ± 0.013
313.15 K, 101.3 kPa, x1 = 0.01364	0.4809 ± 0.013
313.15 K, 101.3 kPa, x1 = 0.02032	0.4846 ± 0.013
313.15 K, 101.3 kPa, x1 = 0.02587	0.4888 ± 0.013
313.15 K, 101.3 kPa, x1 = 0.03281	0.4919 ± 0.013
313.15 K, 101.3 kPa, x1 = 0.03882	0.4951 ± 0.013
313.15 K, 101.3 kPa, x1 = 0.04399	0.4995 ± 0.013
318.15 K, 101 kPa, x1 = 0.3218	0.661 ± 0.017
318.15 K, 101 kPa, x1 = 0.3709	0.7105 ± 0.018
323.15 K, 101 kPa, x1 = 0.3218	0.627 ± 0.016
323.15 K, 101 kPa, x1 = 0.3709	0.672 ± 0.017
323.15 K, 101.3 kPa, x1 = 0.00773	0.4281 ± 0.011
323.15 K, 101.3 kPa, x1 = 0.01364	0.4311 ± 0.011
323.15 K, 101.3 kPa, x1 = 0.02032	0.4342 ± 0.011
323.15 K, 101.3 kPa, x1 = 0.02587	0.4374 ± 0.011
323.15 K, 101.3 kPa, x1 = 0.03882	0.4433 ± 0.011
323.15 K, 101.3 kPa, x1 = 0.04136	0.4401 ± 0.011
323.15 K, 101.3 kPa, x1 = 0.04399	0.4469 ± 0.011

c1ccc2ccccc2c1 + ClC(Cl)(Cl)Cl
viscosity [mPa·s], 101 kPa
Conditions	303.15 K	308.15 K	313.15 K	318.15 K	323.15 K
x1 = 0.2515	1.085 ± 0.027	1 ± 0.025	0.9335 ± 0.024	0.8708 ± 0.022	0.8138 ± 0.021
x1 = 0.4038	–	–	1.109 ± 0.028	1.036 ± 0.026	0.9672 ± 0.024

COc1ccccc1 + ClCCCl
viscosity [mPa·s]
Conditions	298.15 K	303.15 K	308.15 K	313.15 K
101 kPa, x1 = 0.0971	0.8095 ± 0.021	0.7615 ± 0.02	0.7135 ± 0.018	0.6712 ± 0.017
101 kPa, x1 = 0.1961	0.8125 ± 0.021	0.7644 ± 0.02	0.719 ± 0.019	0.6736 ± 0.017
101 kPa, x1 = 0.2958	0.8228 ± 0.021	0.7712 ± 0.02	0.7246 ± 0.019	0.6785 ± 0.018
101 kPa, x1 = 0.3963	0.8354 ± 0.022	0.7823 ± 0.02	0.7333 ± 0.019	0.6881 ± 0.018
101 kPa, x1 = 0.4918	0.8519 ± 0.022	0.7983 ± 0.021	0.7466 ± 0.019	0.7004 ± 0.018
101 kPa, x1 = 0.5946	0.8754 ± 0.023	0.8183 ± 0.021	0.7639 ± 0.02	0.715 ± 0.019
101 kPa, x1 = 0.6933	0.9012 ± 0.023	0.8399 ± 0.022	0.7821 ± 0.02	0.7319 ± 0.019
101 kPa, x1 = 0.7944	0.9299 ± 0.024	0.8693 ± 0.023	0.8076 ± 0.021	0.7519 ± 0.019
101 kPa, x1 = 0.8972	0.9672 ± 0.025	0.8983 ± 0.023	0.834 ± 0.022	0.7759 ± 0.02
101.3 kPa, x1 = 0.0479	–	0.708 ± 0.012	–	–
101.3 kPa, x1 = 0.2944	–	0.726 ± 0.012	–	–
101.3 kPa, x1 = 0.3833	–	0.74 ± 0.012	–	–
101.3 kPa, x1 = 0.5479	–	0.776 ± 0.013	–	–
101.3 kPa, x1 = 0.6192	–	0.785 ± 0.013	–	–
101.3 kPa, x1 = 0.6717	–	0.797 ± 0.013	–	–
101.3 kPa, x1 = 0.9751	–	0.896 ± 0.014	–	–

c1ccc2ccccc2c1 + Clc1ccccc1
viscosity [mPa·s], 101 kPa
Conditions	308.15 K	313.15 K	318.15 K	323.15 K
x1 = 0.3525	0.962 ± 0.024	0.9041 ± 0.023	0.8436 ± 0.021	0.7981 ± 0.02
x1 = 0.4003	1.011 ± 0.025	0.945 ± 0.024	0.887 ± 0.022	0.832 ± 0.021

c1ccc2ccccc2c1 + Nc1ccccc1
viscosity [mPa·s]
Conditions	308.15 K	313.15 K	318.15 K	323.15 K
101 kPa, x1 = 0.2092	2.365 ± 0.06	2.092 ± 0.053	1.868 ± 0.047	1.687 ± 0.043
101 kPa, x1 = 0.3036	2.224 ± 0.056	1.988 ± 0.051	1.783 ± 0.045	1.616 ± 0.041
101.33 kPa, x1 = 0.209	2.365 ± 0.017	2.092 ± 0.015	1.868 ± 0.013	1.687 ± 0.012
101.33 kPa, x1 = 0.2092	2.365 ± 0.062	–	–	–
101.33 kPa, x1 = 0.2497	2.291 ± 0.06	–	–	–
101.33 kPa, x1 = 0.3	2.224 ± 0.016	1.988 ± 0.014	1.783 ± 0.012	1.616 ± 0.011
101.33 kPa, x1 = 0.3036	2.224 ± 0.058	–	–	–

CNC(N)=O + O
viscosity [mPa·s], 101 kPa
Conditions	x1 = 9.02e-05	x1 = 0.00018	x1 = 0.00027	x1 = 0.00036	x1 = 0.0005402	x1 = 0.00108	x1 = 0.001799	x1 = 0.004484
293.15 K	1.003 ± 0.0092	1.01 ± 0.0092	1.002 ± 0.0092	1.007 ± 0.0092	1.008 ± 0.0092	1.017 ± 0.0092	1.013 ± 0.0094	1.036 ± 0.0095
298.15 K	0.8881 ± 0.0083	0.8936 ± 0.0084	0.8933 ± 0.0083	0.8922 ± 0.0083	0.8992 ± 0.0084	0.9009 ± 0.0084	0.8963 ± 0.0083	0.9188 ± 0.0086
303.15 K	–	0.7986 ± 0.0076	0.7953 ± 0.0076	0.798 ± 0.0076	0.8003 ± 0.0077	0.8032 ± 0.0077	0.8075 ± 0.0075	0.8214 ± 0.0078
